Usually IC50 stands for the concentration needed to halve the response being measured. A high value points to weaker potency in that assay.

The experiment addresses T1, Protein Rev [8-24] (Human immunodeficiency virus 1, UniProt P05866).
T1 construct: 8-24
Put plainly: inhibitors of Rev protein–RRE RNA complex – biochemical, protein-RNA interaction, dose response (AID 842).

Molecules are shown by their SMILES.

Turning to `CC[n+]1c(CC=Nc2ccccc2)oc2ccccc21` [3-Ethyl-2-(2-phenylamino-vinyl)-benzooxazol-3-ium], half-maximal inhibition (IC50) required 5.66 µM.

For the compound `Cc1[nH]n(-c2ccccc2)c(=O)c1N=Nc1ccc(N)cc1` [4-(4-aminophenyl)azo-5-methyl-2-phenyl-4H-pyrazol-3-one], the IC50 is more than 79.4 µM.

The record behind these values is BindingDB's records for doi:10.7270/Q2DN43GX (The Scripps Research Institute Molecular Screening Center, 2007).
